Like-named read-outs stand apart in the source and are kept apart here.
Assays:
xanthine oxidase = molecular target: T1, xanthine oxidase (Bos taurus, UniProt P80457); assay: Xanthine oxidase (XO) inhibitory assay; type: biochemical, Bovine; settings: read-out: XO inhibition (%)
T1 construct: purchased Roche Diagnostics (Mannheim, Germany)
Experimental: A total of 100 μL of test samples containing dimethyl sulfoxide (100 μg/mL) and 0.1 U/mL xanthine oxidase (100 µL) were added to a 0.05 M potassium phosphate buffer (1.3 mL, pH 7.5). The mixture was then incubated at 25 °C for 10 min. A 1 mL of 0.15 mM xanthine was added into the solution, then incubated at 30 °C for 10 min. […] The percentage of XO inhibition was calculated as follows: Inhibition (%)=Absorbancenegative control−Absorbancesample/Absorbancenegative control×100% Absorbancenegative control = Absorbance of the negative control (without inhibitors) Absorbancesample = Absorbance of the solution containing test samples

XO [1] = settings: cited from earlier work
XO [2] = molecular target: T2, XO (Bos taurus, UniProt P80457); assay: Circular dichroism (CD) analysis of XO secondary structure; design: species or system Bovine
T2 construct: purchased Roche Diagnostics (Mannheim, Germany)
Experimental: The analysis was carried out according to a modified method. […] The measurement was performed in potassium phosphate buffer (pH 7.5) at room temperature. […] The JASCO SSE (Secondary Structure Estimation) software was used to analyze the CD spectroscopic data with Reed’s reference to obtain the data of various secondary structures of XO with respective ligands.

XO [3] = molecular target: T2, XO; assay: Fluorescence quenching assay of XO; type: binding, Bovine; settings: pH 7.5; for Kd: Modified Stern-Volmer association constant Ka
Experimental: The assay was carried out by referring to a previous method with slight modifications. […] Titrations were performed manually and mixed carefully. […] The excitation wavelength was set at 280 nm, and the excitation and emission slits were 5 nm. The fluorescence background was corrected by subtracting the relevant blanks corresponding to the potassium phosphate buffer (pH 7.5).
To distinguish the mechanism of quenching various inhibitors on XO, the fluorescence quenching output was analyzed by applying the Stern-Volmer equation [34]: F0/F=1+KSV[Q]=1+Kqτ0[Q] where F0 and F represent the steady-state fluorescence intensities of XO in the absence and presence of the respective inhibitor. KSV is the Stern-Volmer quenching constant, determined from the slope of the linear regression of F0/F against the [Q] plot. [Q] represents the concentration of the inhibitor.
Then, Ka values for the inhibitor-XO complex at three different temperatures were calculated from the linear regression of F0/(F0 − F) against 1/[Q].

[4] = previous study, read-out: IC50 (XO inhibitory effect)
[5] = molar ratio XO:inhibitor 1:5, pH 7.5 (free XO 15.4)
[6] = molar ratio XO:inhibitor 1:5, pH 7.5 (free XO 19.7)
[7] = molar ratio XO:inhibitor 1:5, pH 7.5 (free XO 65.0)
[8] = molar ratio XO:inhibitor 1:10, pH 7.5 (free XO 15.4)
[9] = molar ratio XO:inhibitor 1:10, pH 7.5 (free XO 19.7)
[10] = molar ratio XO:inhibitor 1:10, pH 7.5 (free XO 65.0)
[11] = at 100 μg/mL, mean ± SEM, n = 3

T2 sequence (P80457 whole entry): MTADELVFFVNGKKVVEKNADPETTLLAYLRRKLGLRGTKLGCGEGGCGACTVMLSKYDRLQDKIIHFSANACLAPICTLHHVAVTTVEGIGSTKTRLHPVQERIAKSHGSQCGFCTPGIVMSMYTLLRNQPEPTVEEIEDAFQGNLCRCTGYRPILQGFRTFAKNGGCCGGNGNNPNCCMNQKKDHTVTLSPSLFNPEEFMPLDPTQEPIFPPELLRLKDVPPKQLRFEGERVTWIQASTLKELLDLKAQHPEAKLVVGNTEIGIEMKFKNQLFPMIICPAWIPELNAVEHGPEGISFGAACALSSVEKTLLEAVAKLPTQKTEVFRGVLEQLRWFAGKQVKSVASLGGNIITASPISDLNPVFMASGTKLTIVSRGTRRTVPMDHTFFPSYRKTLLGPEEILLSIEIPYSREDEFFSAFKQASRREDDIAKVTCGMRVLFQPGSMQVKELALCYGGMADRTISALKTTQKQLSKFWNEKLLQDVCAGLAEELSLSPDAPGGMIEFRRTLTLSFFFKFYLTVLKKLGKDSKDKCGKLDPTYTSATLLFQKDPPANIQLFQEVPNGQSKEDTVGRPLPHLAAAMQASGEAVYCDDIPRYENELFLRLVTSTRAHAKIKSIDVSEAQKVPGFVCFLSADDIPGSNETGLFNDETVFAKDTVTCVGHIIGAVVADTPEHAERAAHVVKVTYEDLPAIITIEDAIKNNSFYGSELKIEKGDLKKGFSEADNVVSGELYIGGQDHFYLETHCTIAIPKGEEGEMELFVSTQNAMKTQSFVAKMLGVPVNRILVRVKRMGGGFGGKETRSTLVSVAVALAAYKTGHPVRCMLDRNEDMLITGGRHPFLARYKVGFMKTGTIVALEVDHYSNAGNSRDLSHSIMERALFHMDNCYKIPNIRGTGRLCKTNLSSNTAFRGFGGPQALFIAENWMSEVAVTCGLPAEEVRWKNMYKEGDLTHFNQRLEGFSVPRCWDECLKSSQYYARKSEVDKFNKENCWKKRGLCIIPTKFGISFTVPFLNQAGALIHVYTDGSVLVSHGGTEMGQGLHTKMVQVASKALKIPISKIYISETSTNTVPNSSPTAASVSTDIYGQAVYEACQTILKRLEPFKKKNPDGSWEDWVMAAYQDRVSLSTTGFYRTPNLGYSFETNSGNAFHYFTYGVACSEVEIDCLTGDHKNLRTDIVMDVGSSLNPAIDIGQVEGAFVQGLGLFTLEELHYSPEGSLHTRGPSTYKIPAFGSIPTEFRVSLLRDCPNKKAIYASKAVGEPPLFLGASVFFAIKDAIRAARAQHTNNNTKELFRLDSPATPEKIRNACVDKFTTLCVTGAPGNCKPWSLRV
T1 sequence (P80457 whole entry): as above

Compound	inhibition at 100 µg/mL (xanthine oxidase)	IC50 (XO [1]; [4])	Random Coil (%) of XO (XO [2]; [5])	α-Helix (%) of XO (XO [2]; [6])	β-Sheet (%) of XO (XO [2]; [7])	Random Coil (%) of XO (XO [2]; [8])	α-Helix (%) of XO (XO [2]; [9])	β-Sheet (%) of XO (XO [2]; [10])	Quenching constant KSV (XO [3]; 298 K)	Quenching rate constant Kq (XO [3]; 298 K)	Quenching constant KSV (XO [3]; 304 K)	Quenching rate constant Kq (XO [3]; 304 K)	Quenching constant KSV (XO [3]; 310 K)	Quenching rate constant Kq (XO [3]; 310 K)	Kd (XO [3]; 298 K)	Kd (XO [3]; 304 K)	Kd (XO [3]; 310 K)	inhibition at 100 µg/mL (xanthine oxidase; [11])	XO inhibitory potency (in words) (XO [1]; ref 28 (Mohos et al.))	IC50 (XO [1]; ref 27 (Chang et al.), read-out: IC50 (XO inhibition))
Oc1ncnc2[nH]ncc12 [Allopurinol, allopurinol, reference compound]	96.5 ± 2.4%																			
O=c1cc(-c2ccc(O)cc2)oc2cc(O)cc(O)c12 [Apigenin, apigenin]		3.2 µM	22.2%	10.8%	67.0%	0.0%	36.7%	63.3%	130200 L/mol	4.65e+13 L/mol/s	332400 L/mol	1.187e+14 L/mol/s	182100 L/mol	6.504e+13 L/mol/s	5.33 µM	3.5 µM	4.3 µM	56.6 ± 1.77%		
COc1cc(CC(=O)O)ccc1O [Homovanillic acid, homovanillic acid]	30 ± 2.18%		0.0%	36.3%	63.7%	27.0%	5.1%	67.9%	49100 L/mol	1.754e+13 L/mol/s	93100 L/mol	3.325e+13 L/mol/s	698800 L/mol	2.4957e+14 L/mol/s	5.61 µM	2.67 µM	4.15 µM		less potent inhibitor of XO	
O=c1c(O)c(-c2ccc(O)cc2)oc2cc(O)cc(O)c12 [Kaempferol, kaempferol]		2.18 ± 0.02 µM	11.2%	17.1%	71.7%	34.2%	0.0%	65.8%	97700 L/mol	3.489e+13 L/mol/s	396400 L/mol	1.416e+14 L/mol/s	277900 L/mol	9.925e+13 L/mol/s				81.9 ± 3.31%		
O=C(O)/C=C/c1ccccc1 [Trans-cinnamic acid, trans-cinnamic acid]			0.0%	36.4%	63.6%	22.7%	10.4%	66.9%	180000 L/mol	6.429e+13 L/mol/s	282300 L/mol	1.008e+14 L/mol/s	278400 L/mol	9.943e+13 L/mol/s	8.02 µM	3.62 µM	3.49 µM	57.6 ± 6%		> 200 µM
